Test results reported in publication PMC7504721, “Targeting the Initiator Protease of the Classical Pathway of Complement Using Fragment-Based Drug Discovery” (Molecules, 2020).

System: alternative pathway
Assay: Alternative pathway-specific ELISA (LPS, 20% serum, C3b detection)
Assay type: biochemical, human
Conditions: single dose 500 µM, triplicate
Method: Figure 5 Selectivity and mechanistic analysis of CMP-1611 and CMP-1696. (A) Chemical structure of CMP-1611. (B) Chemical structure of CMP-1696. (C) Dose-dependent inhibition by CMP-1611 and CMP-1696 in a classical pathway-specific ELISA. Data were fit with GraphPad Prism using non-linear regression with a log(inhibitor) vs. response model. […] (D) Complement pathway selectivity of CMP-1611 and CMP-1696. Compounds were assessed for their ability to inhibit activation of complement via the lectin and alternative pathways using single doses of 500 µM compound in triplicate. To ensure only lectin pathway activation, 2% (v/v) C1q-depleted serum (CompTech) was used and mannan was used as the activator. To match serum sources and amounts for this assay, the classical pathway assays were repeated here using serum from CompTech at 2% (v/v) final concentration. Alternative pathway activation assays were performed using 20% (v/v) serum (CompTech), alternative pathway buffers, and C3b detection (see Methods and Materials for details). […]
To carry out classical pathway ELISA-based inhibition assays, IgM was dissolved in coating buffer (100 mM Na2CO3/NaHCO3, pH 9.6) to a final concentration of 3 µg/mL and was dispensed into 96-well plates at 100 µL per well. […] The reaction was stopped with 50 µL of 0.16 M sulfuric acid, and the plate was read at 450 nm using an EnSight multimode plate reader (Perkin-Elmer). […]

## CN(C)c1cc(N2CCCC(N)C2)ncn1 (stereo not shown) [CMP-1611]
  inhibition of alternative pathway activation: no effect
